Where two headings read alike, the source gives them in different places.
Tests used:
Assay in all cases: biochemical
Parameters in all cases: Reaction Biology 371-kinase panel at Km ATP, per cent enzyme activity relative to DMSO, single dose in duplicate
[1] = target: ZAP70 (Homo sapiens, UniProt P43403); details: duplicate measurements, Km ATP
How it was run: (§1)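 In vitro selectivity panel: 371 kinases, inhibitor at 300 nM; % activity vs DMSO; IC50 by variable-slope sigmoidal fit, bottom = 0.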

[2] = target: T1, LKB1 (Homo sapiens, UniProt Q15831); details: duplicate measurements, Km ATP
T1 construct: gene STK11
T1 sequence (Q15831 whole entry): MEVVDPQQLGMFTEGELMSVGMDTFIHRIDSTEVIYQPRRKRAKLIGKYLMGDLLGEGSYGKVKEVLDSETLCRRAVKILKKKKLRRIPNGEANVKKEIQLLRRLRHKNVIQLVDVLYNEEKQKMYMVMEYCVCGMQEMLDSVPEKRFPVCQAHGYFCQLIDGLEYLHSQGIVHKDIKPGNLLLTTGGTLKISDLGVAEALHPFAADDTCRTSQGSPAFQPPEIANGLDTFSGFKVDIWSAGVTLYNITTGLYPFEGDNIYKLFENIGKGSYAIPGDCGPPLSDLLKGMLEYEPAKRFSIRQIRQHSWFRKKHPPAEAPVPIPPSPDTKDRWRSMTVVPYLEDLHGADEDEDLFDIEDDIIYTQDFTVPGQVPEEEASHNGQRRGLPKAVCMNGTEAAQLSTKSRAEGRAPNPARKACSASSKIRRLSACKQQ
How it was run: as §1

[3] = target: T2, MKK4 (Homo sapiens, UniProt P45985); details: duplicate measurements, Km ATP
T2 construct: gene MAP2K4
How it was run: as §1

[4] = target: CAMK4 (Homo sapiens, UniProt Q16566); details: duplicate measurements, Km ATP
How it was run: as §1

[5] = target: MASTL (Homo sapiens, UniProt Q96GX5); details: duplicate measurements, Km ATP
How it was run: as §1

[6] = target: T3, MEK1 (Homo sapiens, UniProt Q02750); details: duplicate measurements, Km ATP
T3 construct: gene MAP2K1
How it was run: as §1

[7] = target: PKCmu/PRKD1 (Homo sapiens, UniProt Q15139); details: duplicate measurements, Km ATP
How it was run: as §1

[8] = target: PLK2 (Homo sapiens, UniProt Q9NYY3); details: duplicate measurements, Km ATP
Sequence of PLK2 (Q9NYY3 whole entry): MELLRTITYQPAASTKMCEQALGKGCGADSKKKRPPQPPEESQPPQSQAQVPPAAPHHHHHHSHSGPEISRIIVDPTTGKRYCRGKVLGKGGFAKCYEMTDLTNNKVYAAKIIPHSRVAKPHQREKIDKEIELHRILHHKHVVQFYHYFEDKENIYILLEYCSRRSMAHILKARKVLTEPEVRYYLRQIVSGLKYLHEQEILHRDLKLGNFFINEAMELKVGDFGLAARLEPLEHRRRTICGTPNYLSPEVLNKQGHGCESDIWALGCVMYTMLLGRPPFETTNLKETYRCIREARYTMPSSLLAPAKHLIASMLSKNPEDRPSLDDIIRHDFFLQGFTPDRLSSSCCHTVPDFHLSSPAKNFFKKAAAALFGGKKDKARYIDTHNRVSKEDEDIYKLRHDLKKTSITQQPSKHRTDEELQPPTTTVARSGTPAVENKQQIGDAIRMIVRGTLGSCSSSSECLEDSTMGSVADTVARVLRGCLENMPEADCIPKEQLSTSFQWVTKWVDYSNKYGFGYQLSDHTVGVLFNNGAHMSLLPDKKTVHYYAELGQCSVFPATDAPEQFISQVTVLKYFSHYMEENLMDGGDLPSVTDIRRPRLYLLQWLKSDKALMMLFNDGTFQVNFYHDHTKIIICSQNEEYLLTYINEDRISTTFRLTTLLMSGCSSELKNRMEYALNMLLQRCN
How it was run: as §1

[9] = target: CAMK1d (Homo sapiens, UniProt Q8IU85); details: duplicate measurements, Km ATP
Sequence of CAMK1d (Q8IU85 whole entry): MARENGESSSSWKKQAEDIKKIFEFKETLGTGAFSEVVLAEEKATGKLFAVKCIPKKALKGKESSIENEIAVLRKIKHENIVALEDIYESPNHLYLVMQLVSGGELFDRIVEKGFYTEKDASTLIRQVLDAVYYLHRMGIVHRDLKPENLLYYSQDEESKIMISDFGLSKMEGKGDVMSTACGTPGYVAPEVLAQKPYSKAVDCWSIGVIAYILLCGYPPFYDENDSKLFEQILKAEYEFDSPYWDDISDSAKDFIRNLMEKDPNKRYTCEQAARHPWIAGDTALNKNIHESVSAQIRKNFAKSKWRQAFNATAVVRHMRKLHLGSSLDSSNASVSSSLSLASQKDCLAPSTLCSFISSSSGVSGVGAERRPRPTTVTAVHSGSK
How it was run: as §1

[10] = target: TYK2 (Homo sapiens, UniProt P29597); details: duplicate measurements, Km ATP
Sequence of TYK2 (P29597 whole entry): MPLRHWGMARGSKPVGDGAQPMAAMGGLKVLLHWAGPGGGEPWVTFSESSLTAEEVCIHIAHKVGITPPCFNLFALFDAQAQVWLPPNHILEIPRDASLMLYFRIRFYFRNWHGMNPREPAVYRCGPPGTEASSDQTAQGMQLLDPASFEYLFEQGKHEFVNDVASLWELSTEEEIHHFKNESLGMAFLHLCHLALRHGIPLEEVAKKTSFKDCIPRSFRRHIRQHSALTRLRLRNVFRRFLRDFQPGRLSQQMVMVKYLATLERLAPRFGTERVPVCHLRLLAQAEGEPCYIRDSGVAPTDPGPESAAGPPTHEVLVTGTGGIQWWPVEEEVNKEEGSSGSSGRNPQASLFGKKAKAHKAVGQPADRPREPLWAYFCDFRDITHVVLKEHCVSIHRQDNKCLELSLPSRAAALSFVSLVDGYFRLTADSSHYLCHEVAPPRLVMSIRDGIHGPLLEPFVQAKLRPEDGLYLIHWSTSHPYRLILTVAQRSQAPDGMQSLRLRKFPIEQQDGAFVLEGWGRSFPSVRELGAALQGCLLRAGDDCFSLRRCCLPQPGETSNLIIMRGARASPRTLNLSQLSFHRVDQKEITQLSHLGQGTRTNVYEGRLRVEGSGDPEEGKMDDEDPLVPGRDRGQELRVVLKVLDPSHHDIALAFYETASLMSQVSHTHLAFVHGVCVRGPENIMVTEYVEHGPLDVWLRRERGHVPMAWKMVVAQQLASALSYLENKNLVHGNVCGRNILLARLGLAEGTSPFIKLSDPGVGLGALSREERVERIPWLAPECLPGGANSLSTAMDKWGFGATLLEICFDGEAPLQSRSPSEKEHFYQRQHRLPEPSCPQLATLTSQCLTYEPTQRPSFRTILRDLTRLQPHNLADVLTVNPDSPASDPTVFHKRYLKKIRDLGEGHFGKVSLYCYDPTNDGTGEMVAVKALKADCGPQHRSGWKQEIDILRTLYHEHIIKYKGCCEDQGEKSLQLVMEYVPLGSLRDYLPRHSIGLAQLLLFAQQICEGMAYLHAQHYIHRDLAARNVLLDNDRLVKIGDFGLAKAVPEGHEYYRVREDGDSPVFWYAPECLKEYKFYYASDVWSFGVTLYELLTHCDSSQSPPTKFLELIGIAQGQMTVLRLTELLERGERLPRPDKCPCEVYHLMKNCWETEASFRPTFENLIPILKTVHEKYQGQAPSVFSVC
How it was run: as §1

[11] = target: DMPK (Homo sapiens, UniProt Q09013); details: duplicate measurements, Km ATP
How it was run: as §1

[12] = target: T4, MEKK3 (Homo sapiens, UniProt Q99759); details: duplicate measurements, Km ATP
T4 construct: gene MAP3K3
T4 sequence (Q99759 whole entry): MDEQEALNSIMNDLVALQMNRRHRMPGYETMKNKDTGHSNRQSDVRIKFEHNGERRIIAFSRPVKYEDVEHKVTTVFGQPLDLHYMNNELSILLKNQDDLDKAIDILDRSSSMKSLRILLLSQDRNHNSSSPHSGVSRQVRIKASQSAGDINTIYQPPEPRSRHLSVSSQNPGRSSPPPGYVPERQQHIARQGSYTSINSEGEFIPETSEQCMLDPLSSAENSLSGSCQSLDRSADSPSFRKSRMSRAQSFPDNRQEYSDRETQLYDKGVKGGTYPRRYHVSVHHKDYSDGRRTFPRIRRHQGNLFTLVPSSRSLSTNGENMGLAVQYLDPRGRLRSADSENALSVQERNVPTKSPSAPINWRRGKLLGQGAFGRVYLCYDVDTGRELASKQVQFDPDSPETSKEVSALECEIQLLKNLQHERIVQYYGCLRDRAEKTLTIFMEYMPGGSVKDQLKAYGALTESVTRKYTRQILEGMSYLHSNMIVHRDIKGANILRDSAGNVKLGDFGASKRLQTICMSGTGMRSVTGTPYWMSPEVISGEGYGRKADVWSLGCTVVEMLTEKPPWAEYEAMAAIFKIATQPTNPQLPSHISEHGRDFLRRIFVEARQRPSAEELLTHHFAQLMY
How it was run: as §1

[13] = target: SRPK2 (Homo sapiens, UniProt P78362); details: duplicate measurements, Km ATP
Sequence of SRPK2 (P78362 whole entry): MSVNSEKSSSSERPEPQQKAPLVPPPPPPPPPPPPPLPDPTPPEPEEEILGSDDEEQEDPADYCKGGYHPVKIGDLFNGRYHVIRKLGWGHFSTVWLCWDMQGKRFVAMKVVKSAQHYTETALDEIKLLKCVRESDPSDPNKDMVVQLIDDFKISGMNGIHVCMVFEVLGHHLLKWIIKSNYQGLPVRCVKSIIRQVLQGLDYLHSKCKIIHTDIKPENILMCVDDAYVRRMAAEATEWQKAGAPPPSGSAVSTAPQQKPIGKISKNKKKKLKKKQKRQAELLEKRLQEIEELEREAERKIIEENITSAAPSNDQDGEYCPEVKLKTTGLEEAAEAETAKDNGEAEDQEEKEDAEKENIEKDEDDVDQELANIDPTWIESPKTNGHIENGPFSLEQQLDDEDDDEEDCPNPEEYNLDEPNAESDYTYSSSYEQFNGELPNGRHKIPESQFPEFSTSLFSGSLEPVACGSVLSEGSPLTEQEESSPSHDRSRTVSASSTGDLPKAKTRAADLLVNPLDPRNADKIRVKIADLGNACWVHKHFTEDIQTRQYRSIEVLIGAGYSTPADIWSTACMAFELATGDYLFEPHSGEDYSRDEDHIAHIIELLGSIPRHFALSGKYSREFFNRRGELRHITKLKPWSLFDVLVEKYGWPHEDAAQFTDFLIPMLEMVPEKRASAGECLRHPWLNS
How it was run: as §1

[14] = target: T5, CK1epsilon (Homo sapiens, UniProt P49674); details: duplicate measurements, Km ATP
T5 construct: gene CSNK1E
How it was run: as §1

[15] = target: ULK2 (Homo sapiens, UniProt Q8IYT8); details: duplicate measurements, Km ATP
How it was run: as §1

[16] = target: TLK2 (Homo sapiens, UniProt Q86UE8); details: duplicate measurements, Km ATP
Sequence of TLK2 (Q86UE8 whole entry): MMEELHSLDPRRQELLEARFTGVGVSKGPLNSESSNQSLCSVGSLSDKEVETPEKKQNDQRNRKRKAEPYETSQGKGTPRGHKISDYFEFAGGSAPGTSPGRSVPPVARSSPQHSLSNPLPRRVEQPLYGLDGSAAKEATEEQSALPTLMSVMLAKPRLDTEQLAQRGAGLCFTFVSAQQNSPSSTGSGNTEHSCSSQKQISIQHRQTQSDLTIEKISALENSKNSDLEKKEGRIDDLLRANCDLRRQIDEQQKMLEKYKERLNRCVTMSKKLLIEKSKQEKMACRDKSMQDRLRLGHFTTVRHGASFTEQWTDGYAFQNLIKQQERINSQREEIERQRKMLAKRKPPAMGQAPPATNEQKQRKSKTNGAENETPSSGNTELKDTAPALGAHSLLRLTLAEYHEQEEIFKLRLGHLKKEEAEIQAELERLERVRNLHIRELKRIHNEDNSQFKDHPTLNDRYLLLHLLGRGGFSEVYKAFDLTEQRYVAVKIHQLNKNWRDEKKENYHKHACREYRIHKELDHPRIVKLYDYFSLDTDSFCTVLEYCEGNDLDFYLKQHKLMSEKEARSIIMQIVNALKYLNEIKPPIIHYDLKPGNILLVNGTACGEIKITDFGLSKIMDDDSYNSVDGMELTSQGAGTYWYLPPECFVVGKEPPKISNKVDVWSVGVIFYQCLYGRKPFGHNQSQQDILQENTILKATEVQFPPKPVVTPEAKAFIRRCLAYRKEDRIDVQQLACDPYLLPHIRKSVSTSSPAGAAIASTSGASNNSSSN
How it was run: as §1

[17] = target: T6, CK1a1L (Homo sapiens, UniProt Q8N752); details: duplicate measurements, Km ATP
T6 construct: gene CSNK1A1L
How it was run: as §1

[18] = target: OSR1/OXSR1 (Homo sapiens, UniProt O95747); details: duplicate measurements, Km ATP
How it was run: as §1

[19] = target: T7, CHK1 (Homo sapiens, UniProt O14757); details: duplicate measurements, Km ATP
T7 construct: gene CHEK1
How it was run: as §1

[20] = target: PKG2/PRKG2 (Homo sapiens, UniProt Q13237); details: duplicate measurements, Km ATP; read-out: % Enzyme Activity (relative to DMSO controls) / TP-0005801 (0.3µM) / Data 1
How it was run: as §1

[21] = read-out: % Enzyme Activity (relative to DMSO controls) / TP-0005801 (0.3µM) / Data 1
[22] = read-out: % Enzyme Activity (relative to DMSO controls) / TP-0005801 (0.3µM) / Data 2

SMILES: COc1cc(N2CCN(C)CC2)c(C)cc1Nc1ncc(Br)c(Nc2cccnc2N(C)C)n1 [TP-5801]
- remaining activity at 0.3 µM [1, 21]: 95.5%
- remaining activity at 0.3 µM [1, 22]: 91.3%
- remaining activity at 0.3 µM [2, 21]: 107%
- remaining activity at 0.3 µM [2, 22]: 105%
- remaining activity at 0.3 µM [3, 21]: 78.8%
- remaining activity at 0.3 µM [3, 22]: 76%
- remaining activity at 0.3 µM [4, 21]: 96.9%
- remaining activity at 0.3 µM [4, 22]: 94.7%
- remaining activity at 0.3 µM [5, 21]: 97%
- remaining activity at 0.3 µM [5, 22]: 96.1%
- remaining activity at 0.3 µM [6, 21]: 95.7%
- remaining activity at 0.3 µM [6, 22]: 95.5%
- remaining activity at 0.3 µM [7, 21]: 67.7%
- remaining activity at 0.3 µM [7, 22]: 67.3%
- remaining activity at 0.3 µM [8, 21]: 84%
- remaining activity at 0.3 µM [8, 22]: 83.9%
- remaining activity at 0.3 µM [9, 21]: 75.7%
- remaining activity at 0.3 µM [9, 22]: 73.7%
- remaining activity at 0.3 µM [10, 21]: 100%
- remaining activity at 0.3 µM [10, 22]: 96.7%
- remaining activity at 0.3 µM [11, 21]: 102%
- remaining activity at 0.3 µM [11, 22]: 101%
- remaining activity at 0.3 µM [12, 21]: 92.4%
- remaining activity at 0.3 µM [12, 22]: 88.5%
- remaining activity at 0.3 µM [13, 21]: 114%
- remaining activity at 0.3 µM [13, 22]: 110%
- remaining activity at 0.3 µM [14, 21]: 96.5%
- remaining activity at 0.3 µM [14, 22]: 94.7%
- remaining activity at 0.3 µM [15, 21]: 86.5%
- remaining activity at 0.3 µM [15, 22]: 82.4%
- remaining activity at 0.3 µM [16, 21]: 101%
- remaining activity at 0.3 µM [16, 22]: 100%
- remaining activity at 0.3 µM [17, 21]: 101%
- remaining activity at 0.3 µM [17, 22]: 99.8%
- remaining activity at 0.3 µM [18, 21]: 110%
- remaining activity at 0.3 µM [18, 22]: 104%
- remaining activity at 0.3 µM [19, 21]: 104%
- remaining activity at 0.3 µM [19, 22]: 101%
- remaining activity at 0.3 µM [20]: 111%

Source: article PMC8429728, “TNK1 is a ubiquitin-binding and 14-3-3-regulated kinase that can be targeted to block tumor growth” (Nature Communications, 2021)
